For one assay, the target named is FLT3-ITD (Homo sapiens (Human), UniProt P36888, INS600HVDFREYEYD). The assay is described as follows: pFLT3 MSD assay, Ba/F3 FLT3-ITD. In kind it is cell-based. The settings on record: Ba/F3 FLT3-ITD cells, 2 hours, read-out: BaF3-FLT3-ITD pFlt3 IC50.
Another assay deals with KIT kinase (Homo sapiens (Human), UniProt P10721). Briefly: Competition binding assay (Kd), KIT. The settings on record: competition binding assay. In a few lines: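 Kinase, as T7 phage fusion or HEK-293-expressed DNA-tagged protein, competed off immobilised ligand beads by test compound (eleven-point threefold dilutions, from 100× DMSO stocks). Eluted kinase quantified by qPCR to derive Kd; DMSO used as control.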
Chain of KIT kinase (P10721 26-976): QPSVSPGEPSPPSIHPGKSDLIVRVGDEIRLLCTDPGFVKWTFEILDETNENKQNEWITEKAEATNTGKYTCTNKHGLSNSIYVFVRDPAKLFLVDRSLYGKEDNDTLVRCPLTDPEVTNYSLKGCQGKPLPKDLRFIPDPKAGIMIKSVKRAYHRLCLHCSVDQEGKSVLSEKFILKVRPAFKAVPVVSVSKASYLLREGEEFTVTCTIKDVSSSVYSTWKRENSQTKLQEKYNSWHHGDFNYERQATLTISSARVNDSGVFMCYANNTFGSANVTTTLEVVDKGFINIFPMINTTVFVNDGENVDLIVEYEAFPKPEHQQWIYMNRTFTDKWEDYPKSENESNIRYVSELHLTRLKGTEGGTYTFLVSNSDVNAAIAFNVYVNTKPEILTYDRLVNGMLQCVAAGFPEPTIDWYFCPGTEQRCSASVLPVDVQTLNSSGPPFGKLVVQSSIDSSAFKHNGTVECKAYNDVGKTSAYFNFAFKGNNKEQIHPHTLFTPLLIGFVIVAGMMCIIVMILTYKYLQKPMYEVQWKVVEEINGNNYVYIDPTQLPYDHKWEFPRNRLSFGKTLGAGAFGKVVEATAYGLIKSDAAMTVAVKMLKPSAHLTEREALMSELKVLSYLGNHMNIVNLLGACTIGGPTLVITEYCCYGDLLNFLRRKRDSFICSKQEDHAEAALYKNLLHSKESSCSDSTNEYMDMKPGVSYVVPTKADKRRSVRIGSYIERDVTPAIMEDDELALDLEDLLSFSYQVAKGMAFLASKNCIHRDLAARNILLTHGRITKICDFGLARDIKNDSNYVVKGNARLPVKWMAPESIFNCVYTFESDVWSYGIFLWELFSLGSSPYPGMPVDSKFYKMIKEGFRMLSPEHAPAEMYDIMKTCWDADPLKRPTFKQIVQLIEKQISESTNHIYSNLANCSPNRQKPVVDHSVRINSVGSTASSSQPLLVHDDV

A further assay addresses FLT3 kinase (Homo sapiens (Human), UniProt P36888). Briefly: Competition binding assay (Kd), FLT3. The conditions noted are these: competition binding assay.

Broadly, the IC50 is the point on the concentration scale where inhibition reaches its midpoint. A word on the Kd: it is the equilibrium constant for the complex coming apart. Read a low Kd as a tighter complex.

Chain of FLT3 kinase (P36888 27-993): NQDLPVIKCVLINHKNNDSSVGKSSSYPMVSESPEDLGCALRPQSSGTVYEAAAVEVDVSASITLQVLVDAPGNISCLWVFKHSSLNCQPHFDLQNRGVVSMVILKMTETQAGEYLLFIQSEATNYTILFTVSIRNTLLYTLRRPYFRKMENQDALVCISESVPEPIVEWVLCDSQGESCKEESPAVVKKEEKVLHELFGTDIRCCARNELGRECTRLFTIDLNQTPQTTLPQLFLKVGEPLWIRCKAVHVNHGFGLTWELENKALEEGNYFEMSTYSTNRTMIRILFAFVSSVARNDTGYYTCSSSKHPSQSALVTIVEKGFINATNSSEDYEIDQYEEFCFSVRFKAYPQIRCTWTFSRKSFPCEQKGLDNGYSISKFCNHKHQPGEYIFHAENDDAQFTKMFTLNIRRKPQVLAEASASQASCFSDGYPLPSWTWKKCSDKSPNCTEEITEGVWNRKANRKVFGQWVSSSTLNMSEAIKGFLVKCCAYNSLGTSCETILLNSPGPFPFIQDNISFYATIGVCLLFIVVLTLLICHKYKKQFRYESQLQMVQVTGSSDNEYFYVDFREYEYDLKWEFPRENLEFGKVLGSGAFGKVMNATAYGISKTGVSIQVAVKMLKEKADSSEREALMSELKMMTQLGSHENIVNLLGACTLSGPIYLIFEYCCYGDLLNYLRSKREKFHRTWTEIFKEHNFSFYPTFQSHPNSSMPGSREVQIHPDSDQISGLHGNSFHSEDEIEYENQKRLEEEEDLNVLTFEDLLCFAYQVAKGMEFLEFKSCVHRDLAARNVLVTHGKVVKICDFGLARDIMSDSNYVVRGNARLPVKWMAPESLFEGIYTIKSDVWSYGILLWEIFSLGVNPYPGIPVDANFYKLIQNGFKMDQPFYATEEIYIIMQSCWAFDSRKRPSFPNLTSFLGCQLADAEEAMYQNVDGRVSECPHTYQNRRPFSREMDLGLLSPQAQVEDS
Chain of FLT3-ITD (P36888 other isoform, or with tags, fused parts or gaps limits assumed, stated change not applied): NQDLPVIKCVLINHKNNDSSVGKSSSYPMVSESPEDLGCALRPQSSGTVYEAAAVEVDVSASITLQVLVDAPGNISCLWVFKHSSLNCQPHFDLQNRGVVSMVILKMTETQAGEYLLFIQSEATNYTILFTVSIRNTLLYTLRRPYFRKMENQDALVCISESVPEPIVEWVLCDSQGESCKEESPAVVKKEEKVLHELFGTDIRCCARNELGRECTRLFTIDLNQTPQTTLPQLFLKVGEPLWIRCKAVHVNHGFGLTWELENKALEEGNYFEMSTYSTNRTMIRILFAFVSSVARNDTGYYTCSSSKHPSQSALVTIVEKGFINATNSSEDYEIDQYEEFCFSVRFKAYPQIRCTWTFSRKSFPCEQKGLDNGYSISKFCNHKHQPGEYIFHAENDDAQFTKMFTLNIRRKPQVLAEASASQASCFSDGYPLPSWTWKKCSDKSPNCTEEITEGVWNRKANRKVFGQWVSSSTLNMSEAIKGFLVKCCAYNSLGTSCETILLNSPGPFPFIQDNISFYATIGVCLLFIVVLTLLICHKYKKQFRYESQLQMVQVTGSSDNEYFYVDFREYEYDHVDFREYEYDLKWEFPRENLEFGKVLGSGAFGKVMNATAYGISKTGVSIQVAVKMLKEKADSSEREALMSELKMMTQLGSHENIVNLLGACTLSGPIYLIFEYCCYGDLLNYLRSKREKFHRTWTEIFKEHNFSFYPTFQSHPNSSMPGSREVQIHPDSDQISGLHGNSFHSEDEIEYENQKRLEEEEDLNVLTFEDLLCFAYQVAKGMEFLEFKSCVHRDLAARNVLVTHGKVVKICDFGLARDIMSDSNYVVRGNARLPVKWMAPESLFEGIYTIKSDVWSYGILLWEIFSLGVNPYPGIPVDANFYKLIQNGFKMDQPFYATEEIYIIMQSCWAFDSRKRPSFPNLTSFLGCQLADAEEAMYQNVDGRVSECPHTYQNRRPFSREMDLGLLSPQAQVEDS

With `COc1cc2nc(-c3ccc(CC(=O)Nc4cc(C(C)(C)C(F)(F)F)on4)c(F)c3)cnc2cc1OC1CN(C)C1` [Example 150, 2-[2-fluoro-4-[7-methoxy-6-(1-methylazetidin-3-yl)oxy-quinoxalin-2-yl]phenyl]-N-[5-(2,2,2-trifluoro-1,1-dimethyl-ethyl)isoxazol-3-yl]acetamide], on FLT3-ITD, the IC50 was less than 10 nM. The Kd at KIT kinase and at FLT3 kinase was less than 5 nM each time.

Take `COc1cc2nc(-c3ccc(CC(=O)Nc4cc(C5(C(F)(F)F)CC5)on4)c(F)c3)cnc2cc1OCCOC(C)=O` [Example 130, 2-[2-[3-fluoro-4-[2-oxo-2-[[5-[1-(trifluoromethyl)cyclo-propyl]isoxazol-3-yl]amino]ethyl]phenyl]-7-methoxy-quinoxalin-6-yl]oxyethyl acetate]: the IC50 at FLT3-ITD was less than 10 nM. Further, the Kd on KIT kinase and at FLT3 kinase was less than 5 nM throughout.

As to `COCCOc1cc2ncc(-c3ccc(CC(=O)Nc4cc(C5(C(F)(F)F)CC5)on4)c(F)c3)cc2cc1OC` [Example 126, 2-[2-fluoro-4-[6-methoxy-7-(2-methoxyethoxy)-3-quinolyl]phenyl]-N-[5-[1-(trifluoromethyl)cyclo-propyl]isoxazol-3-yl]acetamide], the IC50 on FLT3-ITD was less than 10 nM. The dissociation constant (Kd) at KIT kinase and on FLT3 kinase was less than 5 nM throughout.

For `COc1cc2nc(-c3ccc(CC(=O)Nc4cc(C(C)(C)C(F)(F)F)on4)c(F)c3)cnc2cc1OC1CNC1` [Example 148, 2-[4-[6-(azetidin-3-yloxy)-7-methoxy-quinoxalin-2-yl]-2-fluoro-phenyl]-N-[5-(2,2,2-trifluoro-1,1-dimethyl-ethyl)isoxazol-3-yl]acetamide], the IC50 at FLT3-ITD was less than 10 nM. The results for the equilibrium dissociation constant (Kd) at KIT kinase and on FLT3 kinase were 5 to 20 nM and less than 5 nM, respectively.

Consider `COc1cc2ncc(-c3ccc(CC(=O)Nc4cc(C(C)(C)C(F)(F)F)on4)c(F)c3)c(N=[N+]=[N-])c2cc1OC` [Example 141, 2-[4-(4-azido-6,7-dimethoxy-3-quinolyl)-2-fluoro-phenyl]-N-[5-(2,2,2-trifluoro-1,1-dimethyl-ethyl)isoxazol-3-yl]acetamide], for which the 50% inhibitory concentration (IC50) on FLT3-ITD is less than 10 nM. Further, the dissociation constant (Kd) at KIT kinase is 5 to 20 nM; at FLT3 kinase, less than 5 nM.

Turning to `CN1CCN(C(=O)c2cc3cc(-c4ccc(CC(=O)Nc5cc(C(C)(C)C)on5)cc4)cnc3[nH]2)CC1` [Example 99, N-(5-tert-butylisoxazol-3-yl)-2-[4-[2-(4-methylpiperazine-1-carbonyl)-1H-pyrrolo[2,3-b]pyridin-5-yl]phenyl]acetamide], at FLT3-ITD, the IC50 is less than 10 nM. Besides, the Kd at KIT kinase and on FLT3 kinase was less than 5 nM in each case.

With `COc1cc2ncc(-c3ccc(CC(=O)Nc4cc(C(C)(C)C)on4)cc3)cc2c(OC)c1OC` [Example 116, N-(5-tert-butylisoxazol-3-yl)-2-[4-(5,6,7-trimethoxy-3-quinolyl)phenyl]acetamide], the IC50 at FLT3-ITD was less than 10 nM. Moreover, the Kd on KIT kinase and at FLT3 kinase was less than 5 nM in each case.

For the molecule `COc1cc2cc(-c3ccc(CC(=O)Nc4cc(C(C)(C)C(F)(F)F)on4)c(F)c3)cnc2cc1OC` [Example 129, 2-[4-(6,7-dimethoxy-3-quinolyl)-2-fluoro-phenyl]-N-[5-(2,2,2-trifluoro-1,1-dimethyl-ethyl)isoxazol-3-yl]acetamide], the IC50 on FLT3-ITD was less than 10 nM. The equilibrium dissociation constant (Kd) at KIT kinase and at FLT3 kinase was less than 5 nM throughout.

On to `COc1cc2nc(-c3ccc(CC(=O)Nc4cc(C5(C(F)(F)F)CC5)on4)c(F)c3)cnc2cc1OCCO` [Example 131, 2-[2-fluoro-4-[6-(2-hydroxyethoxy)-7-methoxy-quinoxalin-2-yl]phenyl]-N-[5-[1-(trifluoromethyl)cyclo-propyl]isoxazol-3-yl]acetamide], for which the half-inhibitory concentration (IC50) at FLT3-ITD is less than 10 nM. Also, the Kd on KIT kinase and at FLT3 kinase was less than 5 nM in each case.

With `O=C(Cc1ccc(-c2cnc3[nH]nc(OCCF)c3c2)cc1F)Nc1cc(C2(C(F)(F)F)CC2)on1` [Example 104, 2-[2-fluoro-4-[3-(2-fluoroethoxy)-1H-pyrazolo[3,4-b]pyridin-5-yl]phenyl]-N-[5-[1-(trifluoro-methyl)cyclopropyl]isoxazol-3-yl]acetamide], the IC50 at FLT3-ITD is less than 10 nM. Further, the dissociation constant Kd on KIT kinase and on FLT3 kinase was less than 5 nM each time.

As for `COc1cc2nc(-c3ccc(CC(=O)Nc4cc(C5(C(F)(F)F)CC5)on4)c(F)c3)cnc2cc1OCCOC(=O)N(C)C` [Example 136, 2-[2-[3-fluoro-4-[2-oxo-2-[[5-[1-(trifluoro-methyl)cyclopropyl]isoxazol-3-yl]amino]ethyl]phenyl]-7-methoxy-quinoxalin-6-yl]oxyethyl N,N-dimethylcarbamate], the concentration for half-maximal inhibition (IC50) on FLT3-ITD is less than 10 nM. The Kd at KIT kinase is 5 to 20 nM; at FLT3 kinase it was less than 5 nM.

For the molecule `COc1cc2ncc(-c3ccc(CC(=O)Nc4cc(C5(C(F)(F)F)CC5)on4)c(F)c3)nc2cc1OCc1ccccc1` [Example 156, 2-[4-(7-benzyloxy-6-methoxy-quinoxalin-2-yl)-2-fluoro-phenyl]-N-[5-[1-(trifluoromethyl)cyclo-propyl]isoxazol-3-yl]acetamide], the IC50 at FLT3-ITD is less than 10 nM. In addition, the Kd on KIT kinase and at FLT3 kinase was greater than 50 nM each time.

Take `CC(C)(c1cc(NC(=O)Cc2ccc(-c3cnc4[nH]nc(OCCOC(F)(F)F)c4c3)cc2F)no1)C(F)(F)F` [Example 114, 2-[2-fluoro-4-[3-[2-(trifluoromethoxy)ethoxy]-1H-pyrazolo[3,4-b]pyridin-5-yl]phenyl]-N-[5-(2,2,2-trifluoro-1,1-dimethyl-ethyl)isoxazol-3-yl]acetamide]: the 50% inhibitory concentration (IC50) on FLT3-ITD was less than 10 nM. Also, the Kd at KIT kinase was 5 to 20 nM; on FLT3 kinase, less than 5 nM.

Regarding `O=C(Cc1ccc(-c2cnc3cc4c(cc3n2)OC[C@@H](CO)O4)cc1F)Nc1cc(C2(C(F)(F)F)CC2)on1` [Example 121, 2-[2-fluoro-4-[(2R)-2-(hydroxymethyl)-2,3-dihydro-[1,4]dioxino[2,3-g]quinoxalin-7-yl]phenyl]-N-[5-[1-(trifluoro-methyl)cyclopropyl]isoxazol-3-yl]acetamide], the IC50 on FLT3-ITD was less than 10 nM. The Kd at KIT kinase and on FLT3 kinase was less than 5 nM throughout.

For `COc1cc2ncc(-c3ccc(CC(=O)Nc4cc(C(C)(C)C(F)(F)F)on4)c(F)c3)c(OC)c2cc1OC` [Example 145, 2-[2-fluoro-4-(4,6,7-trimethoxy-3-quinolyl)phenyl]-N-[5-(2,2,2-trifluoro-1,1-dimethyl-ethyl)isoxazol-3-yl]acetamide], at FLT3-ITD, the IC50 is greater than 50 nM. For the same molecule, the dissociation constant (Kd) is greater than 50 nM on KIT kinase and 5 to 20 nM at FLT3 kinase.

For `COCCOc1cc2ncc(-c3ccc(CC(=O)Nc4cc(C(C)(C)C(F)(F)F)on4)c(F)c3)nc2cc1OC` [Example 159, 2-[2-fluoro-4-[7-methoxy-6-(2-methoxy-ethoxy)quinoxalin-2-yl]phenyl]-N-[5-(2,2,2-trifluoro-1,1-dimethyl-ethyl)isoxazol-3-yl]acetamide], the 50% inhibitory concentration (IC50) on FLT3-ITD is less than 10 nM. Also, the dissociation constant Kd at KIT kinase and at FLT3 kinase was less than 5 nM each time.

Consider `CC(C)(C)c1cc(NC(=O)Cc2ccc(-c3cnc4[nH]nc(-n5nccn5)c4c3)cc2)no1` [Example 101, N-(5-tert-butylisoxazol-3-yl)-2-[4-[3-(triazol-2-yl)-1H-pyrazolo[3,4-b]pyridin-5-yl]phenyl]acetamide], for which the half-inhibitory concentration (IC50) on FLT3-ITD was less than 10 nM. Besides, the equilibrium dissociation constant (Kd) on KIT kinase and at FLT3 kinase was less than 5 nM in each case.

As to `COc1cc2ncc(-c3ccc(CC(=O)Nc4cc(C(C)(C)C(F)(F)F)on4)c(F)c3)nc2cc1OC` [Example 46, 2-(4-(6,7-dimethoxyquinoxalin-2-yl)-2-fluorophenyl)-N-(5-(1,1,1-trifluoro-2-methylpropan-2-yl)isoxazol-3-yl)acetamide], the IC50 at FLT3-ITD is less than 10 nM. Further, the dissociation constant Kd on KIT kinase is 5 to 20 nM; on FLT3 kinase, less than 5 nM.

As for `COc1cc2nc(C)c(-c3ccc(CC(=O)Nc4cc(C5(C(F)(F)F)CC5)on4)c(F)c3)nc2cc1OC` [Example 169, 2-[4-(6,7-dimethoxy-3-methyl-quinoxalin-2-yl)-2-fluoro-phenyl]-N-[5-[1-(trifluoromethyl)cyclo-propyl]isoxazol-3-yl]acetamide], on FLT3-ITD, the IC50 was less than 10 nM. The Kd on KIT kinase and at FLT3 kinase was less than 5 nM throughout.

Consider `COc1cc2ncc(-c3ccc(CC(=O)Nc4cc(C5(C(F)(F)F)CC5)on4)c(F)c3)nc2cc1OCCO` [Example 80, 2-(2-fluoro-4-(7-(2-hydroxyethoxy)-6-methoxyquinoxalin-2-yl)phenyl)-N-(5-(1-(trifluoromethyl)cyclopropyl)isoxazol-3-yl)acetamide], for which the IC50 at FLT3-ITD was less than 10 nM. For the same molecule, the dissociation constant Kd on KIT kinase and on FLT3 kinase was less than 5 nM each time.

Turning to `COc1cc2ncc(-c3ccc(CC(=O)Nc4cc(C(C)(C)C(F)(F)F)on4)cc3)nc2cc1OC` [Example 8, 2-(4-(6,7-dimethoxyquinoxalin-2-yl)phenyl)-N-(5-(1,1,1-trifluoro-2-methylpropan-2-yl)isoxazol-3-yl)acetamide], the IC50 at FLT3-ITD was less than 10 nM. The dissociation constant (Kd) at KIT kinase and on FLT3 kinase was less than 5 nM in each case.

Consider `O=C(Cc1ccc(-c2cnc3[nH]nc(OCC(F)F)c3c2)cc1F)Nc1cc(C2(C(F)(F)F)CC2)on1` [Example 102, 2-[4-[3-(2,2-difluoroethoxy)-1H-pyrazolo[3,4-b]pyridin-5-yl]-2-fluoro-phenyl]-N-[5-[1-(trifluoro-methyl)cyclopropyl]isoxazol-3-yl]acetamide], for which the half-maximal inhibitory concentration (IC50) at FLT3-ITD was less than 10 nM. Besides, the Kd on KIT kinase and at FLT3 kinase was less than 5 nM in each case.
